How the values were obtained:
[1] = target: Serine/threonine-protein kinase MARK1 (Homo sapiens) (UniProt Q9P0L2); test: Inhibition of MARK1 (unknown origin) at 0.1 uM relative to control
[2] = target: Homeodomain-interacting protein kinase 4 (Homo sapiens) (UniProt Q8NE63); test: Inhibition of HIPK4 (unknown origin) at 0.1 uM relative to control
[3] = target: Epidermal growth factor receptor (Homo sapiens) (UniProt P00533); test: Inhibition of EGFR (unknown origin) at 0.1 uM relative to control
[4] = target: Tyrosine-protein kinase JAK2 (Homo sapiens) (UniProt O60674); test: Inhibition of JAK2 (unknown origin) at 0.1 uM relative to control
[5] = target: Tyrosine-protein kinase Blk (Homo sapiens) (UniProt P51451); test: Inhibition of Blk (unknown origin) at 0.1 uM relative to control
[6] = target: Mitogen-activated protein kinase kinase kinase kinase 4 (Homo sapiens) (UniProt O95819); test: Inhibition of MAP4K4 (unknown origin) at 0.1 uM relative to control
[7] = tested on: RAF proto-oncogene serine/threonine-protein kinase (Homo sapiens), P04049 [Y340D,Y341D]; test: Inhibition of RAF1 Y340D/Y341D double mutant (unknown origin) at 0.1 uM relative to control
Homo sapiens = organism: Homo sapiens; test: Inhibition of PDGFRalpha V560D mutant (unknown origin) at 0.1 uM relative to control
[8] = target: Testis-specific serine/threonine-protein kinase 1 (Homo sapiens) (UniProt Q9BXA7); test: Inhibition of TSSK1 (unknown origin) at 0.1 uM relative to control
[9] = target: Mitogen-activated protein kinase 3 (Homo sapiens) (UniProt P27361); test: Inhibition of ERK1 (unknown origin) at 0.1 uM relative to control
[10] = target: Misshapen-like kinase 1 (Homo sapiens) (UniProt Q8N4C8); test: Inhibition of Mink1 (unknown origin) at 0.1 uM relative to control
[11] = target: High affinity nerve growth factor receptor (Homo sapiens) (UniProt P04629); test: Inhibition of TrkA (unknown origin) at 0.1 uM relative to control
[12] = target: Tyrosine-protein kinase ZAP-70 (Homo sapiens) (UniProt P43403); test: Inhibition of ZAP-70 (unknown origin) at 0.1 uM relative to control
[13] = target: Mast/stem cell growth factor receptor Kit (Homo sapiens) (UniProt P10721); test: Inhibition of Kit (unknown origin) at 0.1 uM relative to control
[14] = target: Mitogen-activated protein kinase kinase kinase kinase 2 (Homo sapiens) (UniProt Q12851); test: Inhibition of GCK (unknown origin) at 0.1 uM relative to control
[15] = target: Serine/threonine-protein kinase TAO1 (Homo sapiens) (UniProt Q7L7X3); test: Inhibition of TAO1 (unknown origin) at 0.1 uM relative to control
[16] = target: Platelet-derived growth factor receptor beta (Homo sapiens) (UniProt P09619); test: Inhibition of PDGFRbeta (unknown origin) at 0.1 uM relative to control
[17] = target: Insulin receptor-related protein (Homo sapiens) (UniProt P14616); test: Inhibition of IRR (unknown origin) at 0.1 uM relative to control
[18] = target: Myosin light chain kinase 2, skeletal/cardiac muscle (Homo sapiens) (UniProt Q9H1R3); test: Inhibition of MYLK2 (unknown origin) at 0.1 uM relative to control
[19] = target: Fibroblast growth factor receptor 2 (Homo sapiens) (UniProt P21802); test: Inhibition of FGFR2 (unknown origin) at 0.1 uM relative to control
[20] = target: Fibroblast growth factor receptor 3 (Homo sapiens) (UniProt P22607); test: Inhibition of FGFR3 (unknown origin) at 0.1 uM relative to control
[21] = target: Serine/threonine-protein kinase TBK1 (Homo sapiens) (UniProt Q9UHD2); test: Inhibition of TBK1 (unknown origin) at 0.1 uM relative to control
[22] = target: Serine/threonine-protein kinase Chk1 (Homo sapiens) (UniProt O14757); test: Inhibition of CHK1 (unknown origin) at 0.1 uM relative to control
[23] = target: 5'-AMP-activated protein kinase catalytic subunit alpha-1 (Homo sapiens) (UniProt Q13131); test: Inhibition of PRKAA1 (unknown origin) at 0.1 uM relative to control
[24] = target: Mitogen-activated protein kinase 8 (Homo sapiens) (UniProt P45983); test: Inhibition of JNK1alpha1 (unknown origin) at 0.1 uM relative to control
[25] = target: Tyrosine-protein kinase ABL2 (Homo sapiens) (UniProt P42684); test: Inhibition of Arg (unknown origin) at 0.1 uM relative to control
[26] = target: Glycogen synthase kinase-3 alpha (Homo sapiens) (UniProt P49840); test: Inhibition of GSK3alpha (unknown origin) at 0.1 uM relative to control
[27] = target: Insulin-like growth factor 1 receptor (Homo sapiens) (UniProt P08069); test: Inhibition of IGF1R (unknown origin) at 0.1 uM relative to control
[28] = target: Ephrin type-A receptor 2 (Homo sapiens) (UniProt P29317); test: Inhibition of EphA2 (unknown origin) at 0.1 uM relative to control
[29] = target: Vascular endothelial growth factor receptor 2 (Homo sapiens) (UniProt P35968); test: Inhibition of KDR (unknown origin) at 0.1 uM relative to control
[30] = target: Ribosomal protein S6 kinase alpha-6 (Homo sapiens) (UniProt Q9UK32); test: Inhibition of Rsk4 (unknown origin) at 0.1 uM relative to control
[31] = target: Macrophage colony-stimulating factor 1 receptor (Homo sapiens) (UniProt P07333); test: Inhibition of CSF1R (unknown origin) at 0.1 uM relative to control
[32] = target: Mitogen-activated protein kinase kinase kinase 8 (Homo sapiens) (UniProt P41279); test: Inhibition of Cot (unknown origin) at 0.1 uM relative to control
[33] = target: Cytoplasmic tyrosine-protein kinase BMX (Homo sapiens) (UniProt P51813); test: Inhibition of Bmx (unknown origin) at 0.1 uM relative to control
[34] = target: MAP/microtubule affinity-regulating kinase 3 (Homo sapiens) (UniProt P27448); test: Inhibition of MARK3 (unknown origin) at 0.1 uM relative to control
[35] = target: Macrophage-stimulating protein receptor (Homo sapiens) (UniProt Q04912); test: Inhibition of Ron (unknown origin) at 0.1 uM relative to control
[36] = target: Mitogen-activated protein kinase 13 (Homo sapiens) (UniProt O15264); test: Inhibition of p38delta (unknown origin) at 0.1 uM relative to control
[37] = target: Serine/threonine-protein kinase PAK 2 (Homo sapiens, UniProt Q13177); test: Inhibition of PAK2 (unknown origin) at 0.1 uM relative to control
[38] = target: Tyrosine-protein kinase SYK (Homo sapiens) (UniProt P43405); test: Inhibition of Syk (unknown origin) at 0.1 uM relative to control

Sequence of Platelet-derived growth factor receptor beta (Homo sapiens) (P09619 whole entry): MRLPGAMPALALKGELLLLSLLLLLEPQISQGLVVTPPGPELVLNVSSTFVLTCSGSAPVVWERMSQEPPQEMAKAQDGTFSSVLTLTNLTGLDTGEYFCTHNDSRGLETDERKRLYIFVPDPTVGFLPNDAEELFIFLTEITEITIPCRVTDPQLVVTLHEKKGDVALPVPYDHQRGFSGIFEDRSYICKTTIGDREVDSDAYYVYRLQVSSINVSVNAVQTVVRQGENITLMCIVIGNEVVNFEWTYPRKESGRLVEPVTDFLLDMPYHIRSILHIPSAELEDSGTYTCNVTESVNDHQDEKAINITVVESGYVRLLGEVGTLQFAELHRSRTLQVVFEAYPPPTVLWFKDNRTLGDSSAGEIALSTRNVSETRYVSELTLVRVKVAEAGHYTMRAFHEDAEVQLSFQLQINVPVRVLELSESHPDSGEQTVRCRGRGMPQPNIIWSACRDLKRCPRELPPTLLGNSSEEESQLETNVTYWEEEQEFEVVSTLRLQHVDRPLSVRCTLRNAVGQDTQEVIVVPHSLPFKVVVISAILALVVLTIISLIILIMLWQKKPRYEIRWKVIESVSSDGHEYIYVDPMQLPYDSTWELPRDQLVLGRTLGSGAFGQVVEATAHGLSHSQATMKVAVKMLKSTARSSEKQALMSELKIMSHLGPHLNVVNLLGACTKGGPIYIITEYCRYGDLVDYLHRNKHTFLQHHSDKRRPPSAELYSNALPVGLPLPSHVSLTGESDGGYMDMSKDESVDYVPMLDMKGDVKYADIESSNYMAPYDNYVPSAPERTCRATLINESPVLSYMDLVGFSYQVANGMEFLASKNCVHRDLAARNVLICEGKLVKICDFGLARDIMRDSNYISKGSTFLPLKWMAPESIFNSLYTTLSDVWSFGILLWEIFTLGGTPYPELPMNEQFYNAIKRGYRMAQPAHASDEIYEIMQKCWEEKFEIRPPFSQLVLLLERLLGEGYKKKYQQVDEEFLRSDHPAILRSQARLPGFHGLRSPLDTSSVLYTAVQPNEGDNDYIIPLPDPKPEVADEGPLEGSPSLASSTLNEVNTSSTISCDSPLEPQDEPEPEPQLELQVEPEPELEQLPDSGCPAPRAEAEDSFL
Sequence of Serine/threonine-protein kinase TBK1 (Homo sapiens) (Q9UHD2 whole entry): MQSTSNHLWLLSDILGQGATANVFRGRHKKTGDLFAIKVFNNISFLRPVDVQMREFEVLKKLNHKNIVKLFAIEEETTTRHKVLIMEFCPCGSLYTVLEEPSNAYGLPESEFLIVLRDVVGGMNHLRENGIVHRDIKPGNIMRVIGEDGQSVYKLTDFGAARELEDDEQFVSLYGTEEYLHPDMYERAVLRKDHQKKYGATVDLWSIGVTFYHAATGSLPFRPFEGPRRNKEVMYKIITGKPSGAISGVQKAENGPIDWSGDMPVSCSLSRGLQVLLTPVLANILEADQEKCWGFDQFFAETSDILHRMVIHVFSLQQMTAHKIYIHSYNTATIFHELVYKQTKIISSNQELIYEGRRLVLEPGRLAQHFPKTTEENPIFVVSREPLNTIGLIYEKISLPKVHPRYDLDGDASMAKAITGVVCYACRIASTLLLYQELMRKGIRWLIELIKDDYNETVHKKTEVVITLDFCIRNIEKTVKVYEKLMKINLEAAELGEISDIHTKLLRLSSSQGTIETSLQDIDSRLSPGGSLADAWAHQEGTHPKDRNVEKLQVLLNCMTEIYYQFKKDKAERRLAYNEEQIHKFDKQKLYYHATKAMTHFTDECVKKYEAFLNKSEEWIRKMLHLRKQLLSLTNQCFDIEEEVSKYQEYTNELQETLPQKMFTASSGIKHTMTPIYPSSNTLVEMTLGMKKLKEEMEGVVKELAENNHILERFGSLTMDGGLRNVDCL
Sequence of Mast/stem cell growth factor receptor Kit (Homo sapiens) (P10721 whole entry): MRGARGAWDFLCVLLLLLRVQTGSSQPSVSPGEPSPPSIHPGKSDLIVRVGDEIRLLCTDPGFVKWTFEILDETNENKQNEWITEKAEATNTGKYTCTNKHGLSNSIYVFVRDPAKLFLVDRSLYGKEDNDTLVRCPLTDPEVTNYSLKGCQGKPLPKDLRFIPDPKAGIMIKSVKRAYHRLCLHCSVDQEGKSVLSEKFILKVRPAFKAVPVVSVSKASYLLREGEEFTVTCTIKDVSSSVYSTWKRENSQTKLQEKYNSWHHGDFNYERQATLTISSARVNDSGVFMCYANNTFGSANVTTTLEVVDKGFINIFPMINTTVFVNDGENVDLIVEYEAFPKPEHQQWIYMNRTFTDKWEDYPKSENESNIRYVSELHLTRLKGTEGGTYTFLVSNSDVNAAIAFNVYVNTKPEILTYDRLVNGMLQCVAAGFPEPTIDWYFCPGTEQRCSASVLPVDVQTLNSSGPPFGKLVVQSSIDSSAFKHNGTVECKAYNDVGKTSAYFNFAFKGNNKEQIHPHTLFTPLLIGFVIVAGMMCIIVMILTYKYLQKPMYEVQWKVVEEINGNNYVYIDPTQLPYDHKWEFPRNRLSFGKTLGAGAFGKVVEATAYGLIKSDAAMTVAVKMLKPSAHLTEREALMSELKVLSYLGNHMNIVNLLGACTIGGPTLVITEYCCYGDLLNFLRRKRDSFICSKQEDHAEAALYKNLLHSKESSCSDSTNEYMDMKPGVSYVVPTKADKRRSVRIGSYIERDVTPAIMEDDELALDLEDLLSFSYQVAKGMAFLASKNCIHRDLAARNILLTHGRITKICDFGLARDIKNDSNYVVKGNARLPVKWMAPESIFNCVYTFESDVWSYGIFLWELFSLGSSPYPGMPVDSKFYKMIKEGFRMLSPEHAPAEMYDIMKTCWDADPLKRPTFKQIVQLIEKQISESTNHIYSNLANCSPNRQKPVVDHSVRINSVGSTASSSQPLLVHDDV
Sequence of Ephrin type-A receptor 2 (Homo sapiens) (P29317 whole entry): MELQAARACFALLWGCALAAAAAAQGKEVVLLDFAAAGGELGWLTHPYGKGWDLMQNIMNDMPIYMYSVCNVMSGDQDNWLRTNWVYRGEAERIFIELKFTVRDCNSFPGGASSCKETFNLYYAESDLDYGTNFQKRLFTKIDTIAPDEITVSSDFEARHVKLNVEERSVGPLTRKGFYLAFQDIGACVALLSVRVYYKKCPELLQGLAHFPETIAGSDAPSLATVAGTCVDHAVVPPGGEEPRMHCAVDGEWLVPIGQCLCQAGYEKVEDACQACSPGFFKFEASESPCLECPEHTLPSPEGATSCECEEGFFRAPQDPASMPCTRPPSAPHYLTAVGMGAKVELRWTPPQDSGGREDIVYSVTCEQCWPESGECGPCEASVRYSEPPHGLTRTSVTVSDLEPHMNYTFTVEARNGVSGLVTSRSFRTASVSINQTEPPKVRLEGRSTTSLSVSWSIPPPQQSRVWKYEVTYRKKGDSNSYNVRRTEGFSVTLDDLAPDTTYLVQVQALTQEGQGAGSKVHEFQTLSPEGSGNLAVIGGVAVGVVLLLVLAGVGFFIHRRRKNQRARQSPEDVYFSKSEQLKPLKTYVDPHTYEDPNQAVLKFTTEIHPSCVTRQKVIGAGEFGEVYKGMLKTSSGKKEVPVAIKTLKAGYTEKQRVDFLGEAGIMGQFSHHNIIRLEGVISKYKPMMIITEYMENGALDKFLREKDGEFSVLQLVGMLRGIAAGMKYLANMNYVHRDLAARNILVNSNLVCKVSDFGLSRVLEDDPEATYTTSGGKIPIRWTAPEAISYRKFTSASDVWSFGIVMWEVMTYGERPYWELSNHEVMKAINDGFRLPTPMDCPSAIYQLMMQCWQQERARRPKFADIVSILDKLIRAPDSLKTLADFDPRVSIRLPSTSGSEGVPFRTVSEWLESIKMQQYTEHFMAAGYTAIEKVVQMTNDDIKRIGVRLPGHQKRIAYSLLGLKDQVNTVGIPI
Sequence of Tyrosine-protein kinase JAK2 (Homo sapiens) (O60674 whole entry): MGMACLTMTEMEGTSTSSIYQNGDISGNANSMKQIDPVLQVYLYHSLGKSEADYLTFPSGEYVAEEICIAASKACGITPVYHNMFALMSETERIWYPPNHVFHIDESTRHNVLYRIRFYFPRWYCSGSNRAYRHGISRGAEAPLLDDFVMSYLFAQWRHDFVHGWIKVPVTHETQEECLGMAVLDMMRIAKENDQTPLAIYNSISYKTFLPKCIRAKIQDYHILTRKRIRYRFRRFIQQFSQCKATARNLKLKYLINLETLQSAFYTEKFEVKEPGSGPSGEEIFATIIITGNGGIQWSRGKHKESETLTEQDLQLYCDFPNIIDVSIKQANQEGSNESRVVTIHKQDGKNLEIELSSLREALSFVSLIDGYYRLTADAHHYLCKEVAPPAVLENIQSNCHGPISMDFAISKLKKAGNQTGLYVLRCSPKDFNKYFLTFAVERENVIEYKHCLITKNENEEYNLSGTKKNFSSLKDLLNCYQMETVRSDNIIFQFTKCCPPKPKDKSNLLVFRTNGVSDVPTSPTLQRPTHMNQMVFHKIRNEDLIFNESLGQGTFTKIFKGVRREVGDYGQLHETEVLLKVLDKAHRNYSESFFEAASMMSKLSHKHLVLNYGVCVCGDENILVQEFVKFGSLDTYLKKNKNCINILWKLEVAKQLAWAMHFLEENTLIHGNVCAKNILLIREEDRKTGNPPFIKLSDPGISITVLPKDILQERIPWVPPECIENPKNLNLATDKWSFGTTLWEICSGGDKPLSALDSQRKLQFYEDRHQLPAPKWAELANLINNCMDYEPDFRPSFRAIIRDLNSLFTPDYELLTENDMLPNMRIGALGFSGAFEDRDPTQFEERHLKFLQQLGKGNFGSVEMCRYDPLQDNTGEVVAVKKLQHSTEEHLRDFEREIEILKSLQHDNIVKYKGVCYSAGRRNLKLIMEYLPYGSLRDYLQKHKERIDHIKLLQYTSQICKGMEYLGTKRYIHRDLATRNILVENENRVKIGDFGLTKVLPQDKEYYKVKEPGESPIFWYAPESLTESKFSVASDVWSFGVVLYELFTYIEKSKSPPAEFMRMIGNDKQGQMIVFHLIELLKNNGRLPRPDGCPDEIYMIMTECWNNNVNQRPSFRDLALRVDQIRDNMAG

inhibition [1]	inhibition [2]	inhibition [3]	inhibition [4]	inhibition [5]	inhibition [6]	inhibition [7]	inhibition (Homo sapiens)	inhibition [8]	inhibition [9]	inhibition [10]	inhibition [11]	inhibition [12]	inhibition [13]	inhibition [14]	inhibition [15]	inhibition [16]	inhibition [17]	inhibition [18]	inhibition [19]	Compound	further results
25.8%	18.6%	38%	50.3%	86%	104%	-4.8%	66.9%	28%	12.3%	97%	51.6%	4.5%	37%	69.8%	91.5%	96%	14.5%	25.5%	55.6%	CN1CCc2cc(-c3cnc4[nH]cc(C(=O)c5ccccc5Cl)c4c3)ccc2C1	inhibition [20]: 45.5%; inhibition [21]: 4.3%; inhibition [22]: 19.1%; inhibition [23]: 16%; inhibition [24]: 51%; inhibition [25]: 95.3%; inhibition [26]: 40.6%; inhibition [27]: 6.5%; inhibition [28]: 43.5%; inhibition [29]: 72.2%; inhibition [30]: 11.9%; inhibition [31]: 85.7%; inhibition [32]: 19.6%; inhibition [33]: 91.5%; inhibition [34]: 37%; inhibition [35]: 92.1%; inhibition [36]: 5.1%; inhibition [37]: 97.7%; inhibition [38]: 37.1%
11.3%	5%	2.4%	3.4%	7.2%	14.6%	7.6%	-3.5%	6.2%	6.2%	4.4%	9%	2.4%	-5.5%	1%	-0.2%	0.7%	7.4%	-1.5%	6.8%	COCCNc1nc2ccc(C#CC3(O)CCCCC3)cc2n1-c1ccnc(N)n1	inhibition [20]: 7.6%; inhibition [21]: 11.6%; inhibition [22]: -3.5%; inhibition [23]: 10.6%; inhibition [24]: 4.1%; inhibition [25]: 10.2%; inhibition [26]: 9.7%; inhibition [27]: 2.9%; inhibition [28]: 15%; inhibition [29]: -3.1%; inhibition [30]: 2.4%; inhibition [31]: 2.5%; inhibition [32]: 2.8%; inhibition [33]: 11.6%; inhibition [34]: 5.5%; inhibition [35]: 0.3%; inhibition [36]: 8.4%; inhibition [37]: 14.9%; inhibition [38]: 4.3%
